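The compound was tested at five concentrations on cells cultured in 96-well plates, with a 48-hour exposure period. TGI: total growth inhibition.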
Columns and labels:
Assay in all cases: growth of human tumour cells (NCI), 48 h
RXF 393 renal = tested on: RXF 393 renal
NCI-H522 lung = tested on: NCI-H522 lung
HT29 colon = tested on: HT29 colon
SW-620 colon = tested on: SW-620 colon
SK-OV-3 ovarian = tested on: SK-OV-3 ovarian
SK-MEL-5 melanoma = tested on: SK-MEL-5 melanoma
EKVX NSCLC = tested on: EKVX NSCLC
A498 renal = tested on: A498 renal
NCI/ADR-RES ovarian = tested on: NCI/ADR-RES ovarian
MDA-MB-231 breast = tested on: MDA-MB-231 breast

SMILES | TGI (RXF 393 renal) | TGI (NCI-H522 lung) | TGI (HT29 colon) | TGI (SW-620 colon) | TGI (SK-OV-3 ovarian) | TGI (SK-MEL-5 melanoma) | TGI (EKVX NSCLC) | TGI (A498 renal) | TGI (NCI/ADR-RES ovarian) | TGI (MDA-MB-231 breast)
CCCC(=O)OCC(O)CO (stereo unspecified) | > 5000 µM | > 5000 µM | > 5000 µM | > 5000 µM | > 5000 µM | > 5000 µM |  |  |  | 
C[C@H](O)C(=O)SC[C@H](NC(=O)CC[C@@H](N)C(=O)O)C(=O)NCC(=O)O | > 100 µM | > 100 µM | > 100 µM | > 100 µM | > 100 µM | > 100 µM | > 100 µM |  |  | 
Cc1ccc(S(=O)(=O)NCCSS(=O)(=O)c2ccc(C)cc2)cc1 | 99.3 µM | 38.5 µM | 53.4 µM | 46.5 µM | > 100 µM | 43.1 µM |  | 67.2 µM | 72.3 µM | > 100 µM
Oc1ccc2ccccc2c1Cc1c(O)ccc2ccccc12 | 36 µM | 26 µM | 46.5 µM | 39.9 µM | 35 µM | 32.1 µM | 32.6 µM | 39.4 µM | 37.4 µM | 40.9 µM
O=C(/N=C/c1c(O)c2ccccc2oc1=O)NC1CCCCC1 | > 100 µM |  | > 100 µM | > 100 µM |  | > 100 µM | > 100 µM |  |  | 
COc1c2ccoc2c(S(=O)(=O)Nc2ccc(Cl)cc2)c2oc(C)cc(=O)c12 | > 89.1 µM | > 100 µM | > 100 µM | > 100 µM | > 100 µM | > 100 µM | > 100 µM | > 100 µM | > 100 µM | 
Cc1cc(-c2nc3cc(F)ccc3s2)ccc1NC(=O)C(C)N (stereo unspecified) | 8.33 µM | 7.99 µM | 8.04 µM | 9.77 µM | 8.84 µM | 13.6 µM | 7.03 µM | 7.41 µM | 10.2 µM | 7.7 µM
CN(C)CCC(C(=O)C(C)(C)C)c1ccccn1 (stereo unspecified) | > 100 µM | > 100 µM | > 100 µM | > 100 µM | > 100 µM | > 100 µM | > 100 µM | > 100 µM | > 100 µM | > 100 µM
CC(O)=NC(Cc1ccc2ccccc2c1)C(O)=NC(Cc1ccc(Cl)cc1)C(O)=NC(Cc1c[nH]c2ccccc12)C(O)=NC(CO)C(O)=NC(Cc1ccc(O)cc1)C(O)=NC(CCCN=C(N)N)C(O)=NC(CC(C)C)C(O)=NC(CCCN=C(N)N)C(=O)N1CCCC1C(O)=NC(C)C(=N)O (stereo unspecified) | 92.2 µM | 93 µM | > 100 µM | > 100 µM | 72.3 µM | > 100 µM | > 100 µM | > 100 µM | > 100 µM | > 100 µM
CCCCOc1ccc(S(=O)(=O)/N=C(\NN)Nc2ccc(Cl)cc2)cc1 | 36.2 µM |  | 48.9 µM | 82.2 µM | 67.4 µM | > 100 µM | > 100 µM | > 100 µM | 76.3 µM | 46.3 µM
CO[C@]12C[C@H](CNC(=O)c3cc(Br)c(Br)[nH]3)O[C@H]1NC(=O)N2 |  | > 100 µM | > 100 µM | > 100 µM | > 100 µM | > 100 µM | > 100 µM | > 100 µM | > 100 µM | > 100 µM
CCOC(=O)[C@H]1C[C@]23CN(C(=O)OC(C)(C)C)CC[C@H]2CCC2(SCCCS2)[C@@H]3N1C | 99.7 µM | > 100 µM | 53.3 µM | > 100 µM | > 100 µM | 37.4 µM | 90.4 µM | > 100 µM | > 100 µM | 
NC1=NS(=O)(=O)Nc2nc(-c3cccs3)[nH]c21 | > 100 µM | > 100 µM | > 100 µM | > 100 µM | > 100 µM | > 100 µM |  | > 100 µM |  | 
NCCc1ccc2c(c1)C(=O)c1c(O)ccc(O)c1C2=O | > 100 µM |  |  | > 100 µM | 22.2 µM | 3.94 µM | 6.73 µM | > 100 µM | > 82.9 µM | > 27.8 µM
OC1(c2ccc3ccccc3c2)c2ccc3ccccc3c2C2=NCCN21 (stereo unspecified) | 98.5 µM |  | > 100 µM | > 100 µM | > 100 µM | > 100 µM | > 100 µM | > 100 µM | > 100 µM | > 100 µM
O=C1N[C@@H]2c3c(Br)sc(Br)c3C(=O)[C@@H]2N1 | 14.3 µM | 11.2 µM | 9.01 µM | 4.33 µM | 27.1 µM | 23.9 µM | 17.1 µM | 34 µM | > 70.6 µM | 10.9 µM
COc1ccc2c(c1)CC[C@@H]1[C@@H]2CC[C@]2(C)[C@@H](O)/C(=C/c3ccncc3)C[C@@H]12 | 17.9 µM | 30.6 µM | 15 µM | 24.8 µM | 49.4 µM | 21.4 µM | 70.6 µM | 38.3 µM | 37.2 µM | 32.6 µM
COc1cc(NCc2ccc3n2-c2ccccc2OC3)cc(OC)c1OC | 87.5 µM | 40.7 µM | > 100 µM | > 100 µM |  | 32.3 µM | 45.1 µM | 33.8 µM | 22.5 µM | 34.1 µM
